Entries after “also recorded” stand apart in the source; their conditions may differ.
Experiments:
[1] = In situ Raman spectroscopic solid state analysis of the dissolving tablet in a flow-through chamber; type: physicochemical; details: same setup as Example 1, flow rate 20 ml/min
Protocol: Dissolution testing was carried out employing simultaneous liquid/solid phase analysis. A modified flow-through dissolution method was used, in which • the concentration of the medium was measured with a UV-Vis spectrophotometer and • a simultaneous solid state analysis on the dissolving tablet in a flow-through chamber was performed using an in situ Raman spectroscopic analysis. The dissolution testing setup consisted of the flow-through cell, liquid reservoir (V=500 ml) and a peristaltic pump that circulates the medium (pump speed=70 rpm 9,3 ml/min). The dissolution medium used in the experiments was distilled water (room temperature). The Raman spectra were collected using a Raman spectrometer (Control Development, South Bend, Ind., USA) with a diode laser (Starbright 785 S, Torsana Laser Technologies, Skodsborg, Denmark) at 785 nm. A fiber optic sampling probe (InPhotonics, Norwood, MA, USA) was used. The spectral range measured was 2200-100 cm^−1 at a resolution of 5 cm^−1.

[2] = Flow-through dissolution test, concentration of the dissolution medium by in-line UV-Vis spectrophotometer; type: physicochemical; details: same setup as Example 1, flow rate 20 ml/min
Protocol: Dissolution testing was carried out employing simultaneous liquid/solid phase analysis. A modified flow-through dissolution method was used, in which • the concentration of the medium was measured with a UV-Vis spectrophotometer and • a simultaneous solid state analysis on the dissolving tablet in a flow-through chamber was performed using an in situ Raman spectroscopic analysis. The dissolution testing setup consisted of the flow-through cell, liquid reservoir (V=500 ml) and a peristaltic pump that circulates the medium (pump speed=70 rpm 9,3 ml/min). The dissolution medium used in the experiments was distilled water (room temperature).

O=C1CN(/N=C/c2ccc([N+](=O)[O-])o2)C(=O)N1 [NF anhydrate, Nitrofurantoin]
solid phase transformation during dissolution [1]: solid phase transformation of NF anhydrate to NF monohydrate (II); also recorded: an order of magnitude slower than that of TP anhydrate | changes of the dissolution rate [2]: more complicated when compared to changes in the dissolution rate of TP

— patent publication US20080165354A1, “Method and Apparatus For Dissolving Solid Matter in Liquid” (priority 2005, published 2008)
